Reference: ChEMBL document CHEMBL1151556, “Design and synthesis of new hypocholesterolemic organosilanes with antioxidant properties” (Bioorg Med Chem Lett, 1996)

How the values were obtained:
Homo sapiens [1] = organism: Homo sapiens; assay: Compound was evaluated for the inhibition of human LDL oxidation mediated by copper(II).; format: functional
HepG2 = assay: In vitro inhibition of cholesterol synthesis in HepG2 cells.; format: functional, cell-based; details: Homo sapiens
Rattus norvegicus = assay: Compound was evaluated in vivo for inhibition of cholesterol synthesis in rats upon oral administration.; format: functional
HUVEC = assay: (§1) Compound was evaluated for the inhibition of HUVEC-induced LDL oxidation; format: functional, cell-based; details: Homo sapiens
[2] = molecular target: Squalene monooxygenase (Sus scrofa); assay: Compound was evaluated for the inhibition of pig liver microsomal squalene epoxidase.
Homo sapiens [3] = organism: Homo sapiens; assay: as §1; format: functional, organism-based

Molecule | IC50 (Homo sapiens [1]) | IC50 (Homo sapiens [1]; Homo sapiens) | other results
CC(C)(CNc1ccccc1)c1ccccc1 |  | 100 µM | 
CCN(C[Si](C)(C)c1ccccc1)c1ccccc1 |  | 15 µM | 
CCN(C[Si](C)(C)c1ccc(C(F)(F)F)cc1)c1ccccc1 |  | 20 µM | 
C[Si](C)(CNc1ccccc1)c1ccccc1 |  | 7.8 µM | 
CC(C)(Sc1cc(C(C)(C)C)c(O)c(C(C)(C)C)c1)Sc1cc(C(C)(C)C)c(O)c(C(C)(C)C)c1 [PROBUCOL] |  | 5.3 µM | 
VITAMIN E | 10 µM |  | IC50 (Homo sapiens [3]): 13.6 µM

Now from value to molecule, other results behind:

IC50 (Homo sapiens [1]) | IC50 (Homo sapiens [1]; Homo sapiens) | Molecule | other results
> 50 µM |  | CCN(C/C=C/C#CC(C)(C)C)Cc1cccc(OC[Si](C)(C)c2ccccc2C)c1 | IC50 (HepG2): 0.12 µM; ED50 (Rattus norvegicus): 3.2 mg/kg; IC50 (HUVEC): 50 µM; IC50 [2]: 0.03 µM
 | 3 µM | COc1ccc(NC[Si](C)(C)c2ccccc2)cc1 | 
 | 100 µM | CCN(C[Si](C)(C)c1ccccc1)c1ccc(C(F)(F)F)cc1 | 
20 µM |  | CCN(C/C=C/C#CC(C)(C)C)Cc1cccc(NC[Si](C)(C)c2ccccc2C)c1 | IC50 (HepG2): 0.2 µM; ED50 (Rattus norvegicus): 10 mg/kg; IC50 (HUVEC): 7 µM
